According to ChEMBL document CHEMBL1155928, “Synthesis and structure-activity relationships of berberine analogues as a novel class of low-density-lipoprotein receptor up-regulators” (2008):

tested on: HepG2; experiment: Upregulation of LDLR mRNA expression in human HepG2 cells after 8 hrs by RT-PCR relative to control; assay type: functional

Question: For `COc1cc2c[n+]3c(cc2cc1O)-c1cc2c(cc1CC3)OCO2.[Cl-]`, which Activity is on record?
Answer: 2.2

Question: Which Activity does the source give for `COc1cc2cc3[n+](cc2cc1O)CCc1cc2c(cc1-3)OCO2.[Cl-]` here?
Answer: 1.6

Question: How did the Activity turn out when `CCOc1ccc2cc3[n+](cc2c1)CCc1cc2c(cc1-3)OCO2.[Cl-]` was run?
Answer: 2.9

Question: `CCOc1ccc2cc3[n+](cc2c1OCC)CCc1cc2c(cc1-3)OCO2.[Cl-]` was tested. Which Activity did it give?
Answer: 2.13

Question: `COc1cc2cc3[n+](cc2c(OC)c1OC)CCc1cc2c(cc1-3)OCO2.[Cl-]` was tested. Which Activity did it give?
Answer: 3.16

Question: `[Cl-].c1ccc2c[n+]3c(cc2c1)-c1cc2c(cc1CC3)OCO2` was tested. Which Activity did it give?
Answer: 2.95

Question: With `CCCOc1ccc2cc3[n+](cc2c1)CCc1cc2c(cc1-3)OCO2.[Cl-]` as the compound, how does the Activity read?
Answer: 2.13

Question: With `CCOc1cc2cc3[n+](cc2cc1OC)CCc1cc2c(cc1-3)OCO2.[Cl-]` as the compound, how does the Activity read?
Answer: 2.1

Question: `CCCOc1cc2cc3[n+](cc2cc1OC)CCc1cc2c(cc1-3)OCO2.[Cl-]` was tested. Which Activity did it give?
Answer: 2.35

Question: With `COc1ccc2cc3[n+](cc2c1OC)CCc1cc2c(cc1-3)OCO2.[Cl-]` [BERBERINE CHLORIDE] as the compound, how does the Activity read?
Answer: 5.3

Question: With `CCOc1cc2c[n+]3c(cc2cc1OC)-c1cc2c(cc1CC3)OCO2.[Cl-]` as the compound, how does the Activity read?
Answer: 2.17

Question: For `COc1ccc2cc3[n+](cc2c1)CCc1cc2c(cc1-3)OCO2.[Cl-]`, which Activity is on record?
Answer: 2

Question: Which Activity does the source give for `CCCOc1cc2c[n+]3c(cc2cc1OC)-c1cc2c(cc1CC3)OCO2.[Cl-]` here?
Answer: 1.94

Question: Which Activity does the source give for `CCCOc1ccc2cc3[n+](cc2c1OCCC)CCc1cc2c(cc1-3)OCO2.[Cl-]` here?
Answer: 2.21

Question: How did the Activity turn out when `CCCOc1ccc2cc3[n+](cc2c1OC)CCc1cc2c(cc1-3)OCO2.[Cl-]` was run?
Answer: 2.3

Question: For `COc1cc2cc3[n+](cc2cc1OC)CCc1cc2c(cc1-3)OCO2.[Cl-]` [PSEUDOBERBERINE], which Activity is on record?
Answer: 8.5

Question: `Oc1ccc2cc3[n+](cc2c1)CCc1cc2c(cc1-3)OCO2.[Cl-]` was tested. Which Activity did it give?
Answer: 5.16

Question: With `COc1cc2c[n+]3c(cc2c(OC)c1OC)-c1cc2c(cc1CC3)OCO2.[Cl-]` as the compound, how does the Activity read?
Answer: 3.01

Question: Which Activity does the source give for `CCOc1ccc2cc3[n+](cc2c1OC)CCc1cc2c(cc1-3)OCO2.[Cl-]` here?
Answer: 2.35

Question: For `CCOc1cc2c[n+]3c(cc2cc1O)-c1cc2c(cc1CC3)OCO2.[Cl-]`, which Activity is on record?
Answer: 1.8
